What was measured:
PC12 cells = test: PC12 neurite outgrowth assay; assay type: cell-based; conditions: NGF-primed PC12 cells; scored 2 days later
Experimental: (§1) Cell lines. Murine 3T3 fibroblast (NIH), rat C6 glioma (Paganetti et al., 1988, J. Cell Biol. 107:2281) and MCG-28 young immortalized mouse astrocyte (a murine neonatal astrocyte line immortalized with SV-40) were grown in medium composed of Dulbecco's modified Eagle medium (DMEM), 10% fetal calf serum (Gibco Laboratories), and penicillin G/streptomycin (100 units/ml, 100 μg/ml respectively, Gibco Laboratories). For the stripe assay, confluent plates were disaggregated with 0.05% trypsin, 0.53 mM EDTA (Gibco Laboratories) and seeded at 200,000 cells/ml (3 ml/plate). For the cell adhesion assays, confluent cultures were disaggregated with 0.03% EDTA and plated in a 96-well microtiter plate at 20,000-100,000 cells per well. PC12 cells, a pheochromocytoma cell line (Green L. A. & Tischler A. S., 1976, Proc. Natl. Acad. Sci. U.S.A. 73:2424), were grown in medium containing Roswell Park Memorial Institute (RPMI) medium 1640 (Gibco Laboratories), 10% horse serum, 5% fetal calf serum (FCS), and penicillin G/streptomycin (100 units/ml, 100 μg/ml respectively, Gibco Laboratories). The cells were disaggregated with 0.03% EDTA and plated in a 96-well microtiter plate at 3,000 cells per well.
PC12 cells were primed with 20 ng/ml NGF for 8 days, collected with 0.03% EDTA in PBS and plated in precoated 96-well microtiter plates at 3,000 cells/well. The microtiter plates were precoated with poly-L-lysine and blocked with adhesion medium (1% BSA in RPMI) for 20 min prior to addition of cells. The cells were grown in adhesion medium supplemented with 20 ng/ml NGF. The cells were allowed to attach for 2 hr prior to the addition of the test compounds (Akeson and Warren, 1986, Exp. Cell Res. 162:347-362).
PC-12 cells primed with NGF were plated in 96-well plates. Test solutions were added to the wells and the cells were scored 2 days later as (+) if neurites of at least two cell bodies diameter in length were present on the majority of the cells, and (−) if no or only short processes were present. […] The compounds tested included GAGs (heparin, dermatan sulfate, chondroitin sulfate A, keratan sulfate and hyaluronic acid), sulfated carbohydrate polymers (dextran sulfate and pentosan polysulfate), and another polyanionic polymer (e.g., alginic acid).

3T3 cells = test: Colorimetric cell adhesion assay, 3T3; assay type: cell-based, mouse; conditions: 3T3 cells on PLL; 4 hr incubation; FIG. 7
Experimental: as §1
(§2) Microtiter plates were precoated with poly-L-lysine and blocked with 1% BSA in DMEM for 20 min prior to addition of cells. The cells were plated on the precoated 96-well plates and test compounds were added to the culture medium. Following 4-24 hr incubation at 36° C., 5% C02, in a humidified incubator, the tetrazolium salt MTT (3-(4,5-dimethylthazol-2-yl)-2,5-diphenyl tetrazolium bromide) was added. The cultures were incubated for 2 hr to allow mitochondrial succinate dehydrogenase, found in viable cells, to […] the MTT to its formazan blue reaction product. The media was aspirated and the wells were rinsed to remove all detached cells. The formazan blue reaction product in attached cells was solubilized with 0.08 N HCl in isopropanol, and the plates were read in a microtiter plate reader (Dynatech MR4000) at 570 nm with a 630 nm reference filter. The resulting optical density readings are directly related to the number of viable cells in the well (Mosmann, T., 1983, J. Immunol. Methods 65:55-63). The samples were run in 3-6 replicates per point and the SD was less than 5%.
(§3) The adhesion of fibroblasts to PLL-coated microtiter plates in the presence of test compounds in the culture medium was evaluated using an MTT assay as described in Section 8.1.5., supra, and the number of attached cells was expressed as percent of control. The effect of 4 hr incubation in the presence of heparin, pentosan polysulfate, dextran sulfate, and dextran on adhesion of rat meningeal fibroplasts (RMF) and 3T3 cells to PLL is shown in FIG. 7.

[1] = tested on: rat meningeal fibroblasts (RMF); test: Colorimetric cell adhesion assay, RMF; assay type: cell-based; conditions: RMF on PLL; 4 hr incubation; FIG. 7
Experimental: Primary Cell Cultures. Primary cultures of rat meningeal fibroblasts (RMF) were obtained from P-3 rat pups. The tissue was removed from the animals and transferred to Leibovitz's L-15 with L-glutamine medium. The tissue was then cut into small pieces with a scalpel blade, enzymatically dissociated with 0.25% trypsin in Ca^2+/Mg^2+ free Hank's balanced salt solution (CMF-HBSS, Gibco Laboratories) for 20 minutes at 37° C., and mechanically triturated. The cells were rinsed with DMEM plus 10% FCS, concentrated by centrifugation and subsequently diluted in DMEM with 10% FCS for plating at 5.0×10^6 cells per 75 cm^2 flask. Adult rat sciatic nerve fibroblasts (RSF) were obtained by explantation of 1 mm sections of adult rat sciatic nerve.
as §2, §3

Sulfur content = assay type: physicochemical; conditions: by weight

Row | Substance | IC100, minimum concentration causing 100% inhibition of neurite outgrowth (PC12 cells) | number of attached cells compared to untreated controls (3T3 cells) | number of attached cells compared to untreated controls [1] | Sulfur Content (Sulfur content)
1 | Heparin | 2.6e-07 g/mL | decreased | decreased | 11.8%
2 | dextran [reference compound] | >0.001 g/mL | slight increase | slight increase | 0%
3 | dextran sulfate | 5.2e-07 g/mL | decreased | decreased | 15.3%

— patent publication US6756362B2, “Methods and compositions based on inhibition of cell invasion and fibrosis by anionic polymers” (priority 1991, dated 2004)
